Measurements reported in patent US11312705B2, “Heteroaryl[4,3-C]pyrimidine-5-amine derivative, preparation method therefor, and medical uses thereof” (Jiangsu Hengrui Medicine Co., Ltd., priority 2017, dated 2022).

Legend:
[1] = molecular target: adenosine A2a receptor (A2aR) (Homo sapiens (Human), UniProt P29274); experiment: Inhibition of adenosine A2a receptor cAMP signaling pathway (HTRF cAMP, CHO-K1/A2aR cells); type: cell-based
Text: (§1) Test Example 1. Determination of the inhibition activity of the compounds of the present invention on the adenosine A2a receptor (A2aR) cAMP signaling pathway, the adenosine A2b receptor (A2bR) cAMP signaling pathway, the adenosine A1 receptor (A1R) cAMP signaling pathway and the adenosine A3 receptor (A3R) cAMP signaling pathway.
(§2) The inhibition activity of the compounds of the present invention on the adenosine A2a receptor cAMP signaling pathway, the adenosine A2b receptor cAMP signaling pathway, the adenosine A1 receptor cAMP signaling pathway and the adenosine A3 receptor cAMP signaling pathway was determined by the following method. The experimental method is briefly described as follows:
2.1 Adenosine A2a Receptor
CHO-K1/A2aR cells were cultured in DMEM/F12 medium containing 10% fetal bovine serum and 800 μg/ml bleomycin. The cells were digested with the cell separation buffer during the experiment. The cells were resuspended in the balanced salt buffer containing 20 mM HEPES and 0.1% bovine serum albumin and counted, and the cell density was adjusted to 10^6 cells/ml. In the 384-well plate, each well was added with 5 μl of cell suspension, and 2.5 μl of test compound (4× concentration) formulated with the balanced salt buffer containing 20 mM HEPES, 0.1% bovine serum albumin, 54 μM rolipram and 2.7 U/ml adenosine deaminase, and the plate was incubated at room temperature for 30 minutes. Each well was then added with 2.5 μl of […] (4× concentration) formulated with the balanced salt buffer containing 20 mM HEPES, 0.1% bovine serum albumin, 54 μM rolipram and 2.7 U/ml adenosine deaminase, and the plate was incubated at room temperature for 30 minutes. The final concentrations of the compounds were: 10000, 2000, 400, 80, 16, 3.2, 0.64, 0.128, 0.0256, 0.00512, and 0.001024 nM. The final concentration of […] was 20 nM. Intracellular cAMP concentration was detected with the cAMP dynamic 2 kit. cAMP-d2 and Anti-cAMP-Eu-Cryptate were diluted respectively with the cAMP lysis buffer at a ratio of 1:4. Each well was added with 5 μl of diluted cAMP-d2, followed by addition of 5 μl of diluted Anti-cAMP-Eu-Cryptate, and the plate was incubated at room temperature in the dark for 1 hour. The HTRF signal values were read by the PHERAstar multi-function microplate reader.

[2] = molecular target: adenosine A2b receptor (A2bR) (Homo sapiens (Human), UniProt P29275); experiment: Inhibition of adenosine A2b receptor cAMP signaling pathway (HTRF cAMP, CHO-K1/A2bR cells); type: cell-based; settings: Table 3; for IC50: CHO-K1/A2bR cells, ethyl carbazole 1 μM, cAMP HTRF; for IC50 ratio (A2bR/A2aR): selectivity A2bR over A2aR
adenosine A2b receptor (A2bR), sequence (P29275 whole entry): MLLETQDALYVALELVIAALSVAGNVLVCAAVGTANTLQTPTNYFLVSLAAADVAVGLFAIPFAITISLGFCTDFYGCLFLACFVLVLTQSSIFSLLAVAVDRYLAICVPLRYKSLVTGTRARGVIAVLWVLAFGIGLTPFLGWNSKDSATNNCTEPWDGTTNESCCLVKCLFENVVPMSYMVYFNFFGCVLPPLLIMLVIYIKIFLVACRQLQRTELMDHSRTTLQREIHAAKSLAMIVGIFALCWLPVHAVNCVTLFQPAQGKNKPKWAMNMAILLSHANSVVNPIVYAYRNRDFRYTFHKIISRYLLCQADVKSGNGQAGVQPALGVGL
Text: as §1, §2
2.4 Adenosine A2b receptor (A2bR)
CHO-K1/A2bR cells were cultured in DMEM/F12 medium containing 10% fetal bovine serum and 1 mg/ml G418. The cells were digested with the cell separation buffer during the experiment. The cells were resuspended in the balanced salt buffer containing 20 mM HEPES and 0.1% bovine serum albumin and counted, and the cell density was adjusted to 10^6 cells/ml. In the 384-well plate, each well was added with 5 μl of cell suspension, and 2.5 μl of test compound (4× concentration) formulated with the balanced salt buffer containing 20 mM HEPES, 0.1% bovine serum albumin, 54 μM rolipram and 2.7 U/ml adenosine deaminase, and the plate was incubated at room temperature for 30 minutes. Each well was then added with 2.5 μl of […] (4× concentration) (Torcis, 1691/10) formulated with the balanced salt buffer containing 20 mM HEPES, 0.1% bovine serum albumin, 54 μM rolipram and 2.7 U/ml adenosine deaminase, and the plate was incubated at room temperature for 30 minutes. The final concentrations of the compounds were: 100000, 10000, 1000, 100, 10, 1, 0.1 and 0 nM. The final concentration of […] was 1 μM. Intracellular cAMP concentration was detected with the cAMP dynamic 2 kit. cAMP-d2 and Anti-cAMP-Eu-Cryptate were diluted respectively with the cAMP lysis buffer at a ratio of 1:4. Each well was added with 5 μl of diluted cAMP-d2, followed by addition of 5 μl of diluted Anti-cAMP-Eu-Cryptate, and the plate was incubated at room temperature in the dark for 1 hour. The HTRF signal values were read by the PHERAstar multi-function microplate reader.

adenosine A2a receptor (A2aR), sequence (P29274 whole entry): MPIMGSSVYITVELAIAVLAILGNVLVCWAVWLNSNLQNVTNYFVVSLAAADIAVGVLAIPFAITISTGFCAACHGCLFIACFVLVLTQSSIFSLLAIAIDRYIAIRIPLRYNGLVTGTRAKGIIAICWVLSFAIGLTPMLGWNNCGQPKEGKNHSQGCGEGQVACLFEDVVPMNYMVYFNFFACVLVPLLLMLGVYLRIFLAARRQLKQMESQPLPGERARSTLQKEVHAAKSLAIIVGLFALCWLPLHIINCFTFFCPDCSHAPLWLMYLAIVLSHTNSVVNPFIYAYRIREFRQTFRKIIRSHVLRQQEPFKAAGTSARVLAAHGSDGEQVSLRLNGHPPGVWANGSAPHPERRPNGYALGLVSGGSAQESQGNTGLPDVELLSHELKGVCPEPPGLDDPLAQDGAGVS

Row | Structure (SMILES) | IC50 ([1]; Table 1, ethyl carbazole 20 nM) | IC50 ([1]; Table 3, ethyl carbazole 20 nM) | IC50 [2] | IC50 ratio (A2bR/A2aR) [2]
1 | Cc1cc(-c2c(-c3ccccc3)nc(N)n3cnnc23)cc(C(F)(F)F)n1 [Example 1, 8-(2-Methyl-6-(trifluoromethyl)pyridin-4-yl)-7-phenyl-[1,2,4]triazolo[4,3-c]pyrimidin-5-amine] | 0.23 nM | 0.23 nM | 58.5 nM | 254
2 | Nc1nc(-c2ccccc2)c(-c2cc(F)c3[nH]ncc3c2)c2nncn12 [Example 6, 8-(7-Fluoro-1H-indazol-5-yl)-7-phenyl-[1,2,4]triazolo[4,3-c]pyrimidin-5-amine] | 0.14 nM |  |  | 
3 | Cc1cc(-c2c(-c3ccc(C)o3)nc(N)n3cnnc23)cc(C(F)(F)F)n1 [Example 8, 8-(2-Methyl-6-(trifluoromethyl)pyridin-4-yl)-7-(5-methylfuran-2-yl)-[1,2,4]triazolo[4,3-c]pyrimidin-5-amine] | 0.18 nM | 0.18 nM | 203 nM | 1125
4 | Nc1nc(-c2ccccc2)c(-c2cc(C(F)(F)F)c3[nH]ncc3c2)c2nncn12 [Example 9, 7-Phenyl-8-(7-(trifluoromethyl)-1H-indazol-5-yl)-[1,2,4]triazolo[4,3-c]pyrimidin-5-amine] | 0.25 nM |  |  | 
5 | Nc1nc(-c2ccccc2)c(-c2ccc3[nH]ncc3c2)c2nncn12 [Example 10, 8-(1H-indazol-5-yl)-7-phenyl-[1,2,4]triazolo[4,3-c]pyrimidin-5-amine] | 0.26 nM | 0.26 nM | 91 nM | 350
6 | Cc1cc(-c2c(-c3ccccc3)nc(N)n3cnnc23)ccn1 [Example 12, 8-(2-Methylpyridin-4-yl)-7-phenyl-[1,2,4]triazolo[4,3-c]pyrimidin-5-amine] | 0.63 nM |  |  | 
7 | Cc1cc(-c2c(-c3ccc(Cl)cc3)nc(N)n3cnnc23)cc(C(F)(F)F)n1 [Example 14, 7-(4-Chlorophenyl)-8-(2-methyl-6-(trifluoromethyl)pyridin-4-yl)-[1,2,4]triazolo[4,3-c]pyrimidin-5-amine] | 1.56 nM |  |  | 
8 | Cc1cc(-c2c(-c3ccc(F)cc3)nc(N)n3cnnc23)cc(Cl)n1 [Example 15, 8-(2-Chloro-6-methylpyridin-4-yl)-7-(4-fluorophenyl)-[1,2,4]triazolo[4,3-c]pyrimidin-5-amine] | 0.17 nM | 0.17 nM | 98.9 nM | 582
9 | Cc1cc(-c2c(-c3ccc(F)cc3)nc(N)n3cnnc23)cc(C(F)(F)F)n1 [Example 16, 7-(4-Fluorophenyl)-8-(2-methyl-6-(trifluoromethyl)pyridin-4-yl)-[1,2,4]triazolo[4,3-c]pyrimidin-5-amine] | 0.63 nM | 0.63 nM | 122 nM | 194
10 | Cc1cc(-c2c(-c3ccccc3)nc(N)n3ccnc23)cc(C(F)(F)F)n1 [Example 17, 8-(2-Methyl-6-(trifluoromethyl)pyridin-4-yl)-7-phenylimidazo[1,2-c]pyrimidin-5-amine] | 0.75 nM |  |  | 
11 | Cc1cc(-c2c(-c3ccccc3)nc(N)n3cc(C)nc23)cc(C)n1 [Example 21, 8-(2,6-Dimethylpyridin-4-yl)-2-methyl-7-phenylimidazo[1,2-c]pyrimidin-5-amine] | 2.46 nM |  |  | 
12 | Nc1nc(-c2ccccc2)c(-c2cc(Cl)nc(C(F)(F)F)c2)c2nncn12 [Example 23, 8-(2-Chloro-6-(trifluoromethyl)pyridin-4-yl)-7-phenyl-[1,2,4]triazolo[4,3-c]pyrimidin-5-amine] | 0.23 nM |  |  | 
13 | Cc1cc(-c2c(-c3ccccc3)nc(N)n3ccnc23)cc(Cl)n1 [Example 24, 8-(2-Chloro-6-methylpyridin-4-yl)-7-phenylimidazo[1,2-c]pyrimidin-5-amine] | 0.27 nM |  |  | 
14 | COc1cc(-c2c(-c3ccccc3)nc(N)n3cnnc23)cc(C)n1 [Example 25, 8-(2-Methoxy-6-methylpyridin-4-yl)-7-phenyl-[1,2,4]triazolo[4,3-c]pyrimidin-5-amine] | 0.32 nM |  |  | 
15 | CCc1cc(-c2c(-c3ccccc3)nc(N)n3cnnc23)cc(C)n1 [Example 26, 8-(2-Ethyl-6-methylpyridin-4-yl)-7-phenyl-[1,2,4]triazolo[4,3-c]pyrimidin-5-amine] | 0.42 nM |  |  | 
16 | Cc1cc(-c2c(-c3cccc(F)c3)nc(N)n3cnnc23)cc(C(F)(F)F)n1 [Example 29, 7-(3-Fluorophenyl)-8-(2-methyl-6-(trifluoromethyl)pyridin-4-yl)-[1,2,4]triazolo[4,3-c]pyrimidin-5-amine] | 0.55 nM | 0.55 nM | 86.3 nM | 157
17 | Cc1cc(-c2c(-c3ccccc3)nc(N)n3cnnc23)cc(C2CC2)n1 [Example 30, 8-(2-Cyclopropyl-6-methylpyridin-4-yl)-7-phenyl-[1,2,4]triazolo[4,3-c]pyrimidin-5-amine] | 0.77 nM | 0.77 nM | 70.9 nM | 92
18 | Cc1cc(-c2c(-c3ccccc3)nc(N)n3ccnc23)cc(C)n1 [Example 31, 8-(2,6-Dimethylpyridin-4-yl)-7-phenylimidazo[1,2-c]pyrimidin-5-amine] | 0.93 nM |  |  | 
19 | Cc1cc(-c2c(-c3ccc(F)cc3)nc(N)n3ccnc23)cc(C)n1 [Example 32, 8-(2,6-Dimethylpyridin-4-yl)-7-(4-fluorophenyl)imidazo[1,2-c]pyrimidin-5-amine] | 1 nM |  |  | 
20 | Cc1ccc(-c2nc(N)n3cnnc3c2-c2cc(C)nc(Cl)c2)cc1 [Example 35, 8-(2-Chloro-6-methylpyridin-4-yl)-7-(p-tolyl)-[1,2,4]triazolo[4,3-c]pyrimidin-5-amine] | 0.18 nM |  |  | 
21 | Cc1cc(-c2c(-c3ccc(Cl)cc3)nc(N)n3cnnc23)cc(Cl)n1 [Example 36, 8-(2-Chloro-6-methylpyridin-4-yl)-7-(4-chlorophenyl)-[1,2,4]triazolo[4,3-c]pyrimidin-5-amine] | 3.47 nM |  |  | 
22 | Nc1nc(-c2ccccc2)c(-c2ccncc2)c2nncn12 [Example 37, 7-Phenyl-8-(pyridin-4-yl)-[1,2,4]triazolo[4,3-c]pyrimidin-5-amine] | 2.11 nM |  |  | 
23 | Nc1nc(-c2ccccc2)c(-c2ccnc(Cl)c2)c2nncn12 [Example 38, 8-(2-Chloropyridin-4-yl)-7-phenyl-[1,2,4]triazolo[4,3-c]pyrimidin-5-amine] | 2.18 nM |  |  | 
24 | Cc1cc(-c2c(-c3ccc(F)cc3F)nc(N)n3cnnc23)cc(C)n1 [Example 40, 7-(2,4-Difluorophenyl)-8-(2,6-dimethylpyridin-4-yl)-[1,2,4]triazolo[4,3-c]pyrimidin-5-amine] | 1.75 nM |  |  | 
25 | CC(C)n1cc(-c2c(-c3ccccc3)nc(N)n3cnnc23)ccc1=O [Example 43, 5-(5-Amino-7-phenyl-[1,2,4]triazolo[4,3-c]pyrimidin-8-yl)-1-isopropylpyridin-2(1H)-one] | 0.2 nM |  |  | 
26 | Cc1cc(-c2c(-c3ccc(Cl)cc3)nc(N)n3cnnc23)cc(CF)n1 [Example 53, 7-(4-Chlorophenyl)-8-(2-(fluoromethyl)-6-methylpyridin-4-yl)-[1,2,4]triazolo[4,3-c]pyrimidin-5-amine] | 0.35 nM |  |  | 
27 | Cc1cc(-c2c(-c3ccc(Cl)cc3)nc(N)n3cnnc23)cc(C)n1 [Example 54, 7-(4-Chlorophenyl)-8-(2,6-dimethylpyridin-4-yl)-[1,2,4]triazolo[4,3-c]pyrimidin-5-amine] | 0.48 nM |  |  | 
